Test [1] concerns the target Carbonic anhydrase 13 (Mus musculus) (UniProt Q9D6N1). Description: Inhibition of mouse recombinant carbonic anhydrase 13 by stopped flow CO2 hydration method.
The target of test [2] is T1, Carbonic anhydrase 15 (Mus musculus) (UniProt Q99N23).
T1 sequence (whole entry): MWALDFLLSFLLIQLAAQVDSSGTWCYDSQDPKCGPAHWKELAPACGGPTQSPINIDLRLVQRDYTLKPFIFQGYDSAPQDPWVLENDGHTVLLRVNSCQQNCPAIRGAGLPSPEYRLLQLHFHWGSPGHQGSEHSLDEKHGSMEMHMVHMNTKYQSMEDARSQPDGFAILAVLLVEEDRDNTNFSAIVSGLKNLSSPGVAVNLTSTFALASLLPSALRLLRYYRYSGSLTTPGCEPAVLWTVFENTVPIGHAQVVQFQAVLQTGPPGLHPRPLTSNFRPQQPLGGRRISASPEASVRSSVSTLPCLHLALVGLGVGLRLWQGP
Nature of the test: Inhibition of mouse recombinant carbonic anhydrase 15 by stopped flow CO2 hydration method.

The target of test [3] is Carbonic anhydrase 5B, mitochondrial (Homo sapiens) (UniProt Q9Y2D0).
Description: Inhibition of human recombinant carbonic anhydrase 5B by stopped flow CO2 hydration method
Test [4] has as its target Carbonic anhydrase 1 (Homo sapiens) (UniProt P00915).
For test [5], the target named is T2, Carbonic anhydrase 2 (Homo sapiens, UniProt P00918).
For test [6], the target named is Carbonic anhydrase 3 (Homo sapiens) (UniProt P07451).
Description: Inhibition of human recombinant carbonic anhydrase 3 by stopped flow CO2 hydration method
Test [7] addresses Carbonic anhydrase 4 (Homo sapiens) (UniProt P22748).
Description: Inhibition of human recombinant carbonic anhydrase 4 by stopped flow CO2 hydration method
Test [8] concerns the target Carbonic anhydrase 5A, mitochondrial (Homo sapiens) (UniProt P35218).
Description: Inhibition of human recombinant carbonic anhydrase 5A by stopped flow CO2 hydration method
Test [9] addresses Carbonic anhydrase 6 (Homo sapiens) (UniProt P23280).
Description: Inhibition of human recombinant carbonic anhydrase 6 by stopped flow CO2 hydration method
The target of test [10] is Carbonic anhydrase 7 (Homo sapiens) (UniProt P43166).
Test [11] concerns the target Carbonic anhydrase 9 (Homo sapiens) (UniProt Q16790).
Description: Inhibition of human recombinant carbonic anhydrase 9 catalytic domain by stopped flow CO2 hydration method
Test [12] deals with Carbonic anhydrase 12 (Homo sapiens) (UniProt O43570).
Description: Inhibition of human recombinant carbonic anhydrase 12 catalytic domain by stopped flow CO2 hydration method
Test [13] deals with Carbonic anhydrase 14 (Homo sapiens) (UniProt Q9ULX7).
Description: Inhibition of human recombinant carbonic anhydrase 14 by stopped flow CO2 hydration method
In test [14] the target is T2, Carbonic anhydrase 2. Description: Inhibition of human recombinant carbonic anhydrase 2 assessed as activity of carbonic anhydrase 2 esterase activity against 4-nitrophenyl acetate.
Test [15] has as its target T2, Carbonic anhydrase 2. Description: Inhibition of human recombinant carbonic anhydrase 2 by oxygen-18 isotope exchange assay.

Chain of Carbonic anhydrase 6 (Homo sapiens) (P23280 whole entry): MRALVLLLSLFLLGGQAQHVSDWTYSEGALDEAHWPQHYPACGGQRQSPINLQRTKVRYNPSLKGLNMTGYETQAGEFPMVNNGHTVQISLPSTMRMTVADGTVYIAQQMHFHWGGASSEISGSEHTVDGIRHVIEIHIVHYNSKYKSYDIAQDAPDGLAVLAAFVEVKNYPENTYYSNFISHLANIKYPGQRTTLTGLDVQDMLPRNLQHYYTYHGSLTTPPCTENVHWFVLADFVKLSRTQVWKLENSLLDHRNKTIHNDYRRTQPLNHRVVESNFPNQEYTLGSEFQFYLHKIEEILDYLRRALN
Chain of Carbonic anhydrase 4 (Homo sapiens) (P22748 whole entry): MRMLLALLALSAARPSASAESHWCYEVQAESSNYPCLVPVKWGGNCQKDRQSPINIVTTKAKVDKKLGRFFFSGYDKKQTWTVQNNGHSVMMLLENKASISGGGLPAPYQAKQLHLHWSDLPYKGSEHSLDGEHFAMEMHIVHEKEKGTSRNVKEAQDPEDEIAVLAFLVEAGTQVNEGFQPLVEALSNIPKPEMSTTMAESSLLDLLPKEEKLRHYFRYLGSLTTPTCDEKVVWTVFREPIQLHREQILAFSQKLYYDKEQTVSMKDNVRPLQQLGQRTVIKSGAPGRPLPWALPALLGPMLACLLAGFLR
Chain of Carbonic anhydrase 1 (Homo sapiens) (P00915 2-261 limits assumed): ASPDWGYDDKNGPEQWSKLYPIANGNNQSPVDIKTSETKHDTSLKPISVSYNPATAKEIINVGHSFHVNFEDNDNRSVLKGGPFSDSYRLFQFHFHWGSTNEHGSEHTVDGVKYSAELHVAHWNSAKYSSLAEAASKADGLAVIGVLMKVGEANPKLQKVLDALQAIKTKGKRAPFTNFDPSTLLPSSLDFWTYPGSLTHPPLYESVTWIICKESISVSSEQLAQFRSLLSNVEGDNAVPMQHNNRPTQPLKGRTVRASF
Chain of Carbonic anhydrase 12 (Homo sapiens) (O43570 whole entry): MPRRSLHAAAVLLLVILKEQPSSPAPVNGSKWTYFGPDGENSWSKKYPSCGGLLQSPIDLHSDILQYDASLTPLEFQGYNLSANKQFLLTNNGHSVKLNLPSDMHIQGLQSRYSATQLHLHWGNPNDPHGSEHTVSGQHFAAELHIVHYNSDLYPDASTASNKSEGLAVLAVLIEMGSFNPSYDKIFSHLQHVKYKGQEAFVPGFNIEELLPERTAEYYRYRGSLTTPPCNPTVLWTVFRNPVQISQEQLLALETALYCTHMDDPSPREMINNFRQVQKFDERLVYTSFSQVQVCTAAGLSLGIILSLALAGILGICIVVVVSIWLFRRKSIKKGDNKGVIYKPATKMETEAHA
Chain of Carbonic anhydrase 7 (Homo sapiens) (P43166 whole entry): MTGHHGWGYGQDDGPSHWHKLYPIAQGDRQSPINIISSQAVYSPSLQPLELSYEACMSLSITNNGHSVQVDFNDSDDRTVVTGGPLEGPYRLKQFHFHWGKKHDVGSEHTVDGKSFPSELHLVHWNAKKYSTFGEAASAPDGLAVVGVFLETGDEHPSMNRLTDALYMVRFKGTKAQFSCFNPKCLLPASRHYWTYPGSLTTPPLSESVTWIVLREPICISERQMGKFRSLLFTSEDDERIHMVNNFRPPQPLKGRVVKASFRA
Chain of Carbonic anhydrase 5A, mitochondrial (Homo sapiens) (P35218 whole entry): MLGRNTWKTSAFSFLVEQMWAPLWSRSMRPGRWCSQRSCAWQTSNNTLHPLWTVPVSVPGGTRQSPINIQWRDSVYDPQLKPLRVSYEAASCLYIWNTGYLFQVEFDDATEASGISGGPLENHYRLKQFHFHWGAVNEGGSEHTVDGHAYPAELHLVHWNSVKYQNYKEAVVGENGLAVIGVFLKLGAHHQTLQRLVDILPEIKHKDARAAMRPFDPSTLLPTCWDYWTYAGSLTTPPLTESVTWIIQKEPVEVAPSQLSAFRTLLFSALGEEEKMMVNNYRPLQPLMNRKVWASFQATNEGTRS
Chain of Carbonic anhydrase 5B, mitochondrial (Homo sapiens) (Q9Y2D0 whole entry): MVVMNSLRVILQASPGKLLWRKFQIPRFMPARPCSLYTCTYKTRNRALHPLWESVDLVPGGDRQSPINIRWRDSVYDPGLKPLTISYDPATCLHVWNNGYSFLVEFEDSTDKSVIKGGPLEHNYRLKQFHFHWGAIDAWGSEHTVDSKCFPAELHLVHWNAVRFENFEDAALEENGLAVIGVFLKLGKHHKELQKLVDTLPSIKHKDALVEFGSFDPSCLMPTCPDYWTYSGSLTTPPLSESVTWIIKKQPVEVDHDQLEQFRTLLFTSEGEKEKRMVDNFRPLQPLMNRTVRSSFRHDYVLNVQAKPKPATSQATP
Chain of Carbonic anhydrase 13 (Mus musculus) (Q9D6N1 whole entry, looked up): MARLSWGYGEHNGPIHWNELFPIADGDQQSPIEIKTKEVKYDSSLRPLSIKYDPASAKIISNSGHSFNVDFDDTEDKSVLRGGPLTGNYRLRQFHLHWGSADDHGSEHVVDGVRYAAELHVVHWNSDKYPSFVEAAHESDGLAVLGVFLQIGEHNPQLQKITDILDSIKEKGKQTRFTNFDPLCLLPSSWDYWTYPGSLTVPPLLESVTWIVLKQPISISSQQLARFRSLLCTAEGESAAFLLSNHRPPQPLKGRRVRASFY
Chain of Carbonic anhydrase 3 (Homo sapiens) (P07451 whole entry): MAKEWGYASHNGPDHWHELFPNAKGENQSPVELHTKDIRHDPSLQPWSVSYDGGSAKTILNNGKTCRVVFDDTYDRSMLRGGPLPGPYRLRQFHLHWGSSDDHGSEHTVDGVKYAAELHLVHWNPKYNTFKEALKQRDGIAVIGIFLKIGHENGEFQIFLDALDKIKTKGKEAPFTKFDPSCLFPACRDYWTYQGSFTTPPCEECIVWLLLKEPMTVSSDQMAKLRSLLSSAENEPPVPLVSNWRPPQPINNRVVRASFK
Chain of Carbonic anhydrase 14 (Homo sapiens) (Q9ULX7 whole entry): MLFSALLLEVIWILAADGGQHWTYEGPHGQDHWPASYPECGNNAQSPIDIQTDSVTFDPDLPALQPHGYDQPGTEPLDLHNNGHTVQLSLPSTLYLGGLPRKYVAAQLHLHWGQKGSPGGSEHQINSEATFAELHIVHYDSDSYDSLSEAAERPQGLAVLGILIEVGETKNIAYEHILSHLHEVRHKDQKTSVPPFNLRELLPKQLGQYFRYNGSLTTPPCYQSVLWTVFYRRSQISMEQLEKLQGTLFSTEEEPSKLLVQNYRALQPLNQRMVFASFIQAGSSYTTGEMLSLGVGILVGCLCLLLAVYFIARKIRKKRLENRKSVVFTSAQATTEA

Consider `NS(=O)(=O)c1cc(Cl)c(O)c(Cl)c1`, for which the Kinact in test [1] turned out to be 6.53 µM; in [3], 0.61 µM; in test [4], 7.5 µM; in test [5] it was 0.058 µM; in test [6], 78.6 µM; in [7], 0.072 µM. The Kinact in test [9] is 6.17 µM; in test [10] it was 0.072 µM; in test [11], 0.081 µM; in test [12], 0.076 µM; in test [13], 8.12 µM. In addition, the Ki is 0.78 µM in test [2] and 0.62 µM in [8].
Regarding `O=c1oc2cc(O)ccc2s1` [TIOXOLONE], in test [14], the IC50 was found to be 1.77 µM. Further, the Kinact was determined as 8.23 µM in test [1]; 314 µM in [15]; 9.04 µM in test [3]; 0.091 µM in test [4]; 6.82 µM in [5]; 6.56 µM in test [6]. The Kinact in test [7] stood at 8.41 µM; in test [9], 4.93 µM; in test [10], 5.73 µM; in [11], 6.67 µM; in [12] it was 7.79 µM; in test [13], 8.59 µM. In addition, the Ki in [2] stood at 7.87 µM; in test [8] it was 7.06 µM.

By Ki is commonly meant a measure of affinity in units of concentration, obtained from inhibition or displacement. As usually defined, the IC50 is the midpoint of a concentration-inhibition curve.

The values above are taken from ChEMBL document CHEMBL1155067, “Carbonic anhydrase inhibitors: thioxolone versus sulfonamides for obtaining isozyme-selective inhibitors?” (Bioorg Med Chem Lett, 2008).
